Laboratory results: US8816088B2 (Theravance, Inc., priority 2009, dated 2014)
Structures can show the parent of a compound that is named as a salt.

system: MCh-induced bronchoconstriction; test: Einthoven assay: bronchoprotection against methacholine (MCh)-induced bronchoconstriction; format: in vivo; settings: Rattus norvegicus, inhaled or nasal, 24 h, read-out: Broncho. at 24 h, Bronchoprotective effect present at 24 h, 100 μg by inhalation, 24 h after administration
Description: This assay measures the ability of a test compound to provide bronchoprotection against methacholine (MCh)-induced bronchoconstriction in a rat. Male Sprague-Dawley rats (Harlan, Indianapolis, Ind.), weighing between 200 g and 350 g, were used for all studies. Test compound or vehicle (sterile deionized water) were dosed by inhalation (1H) over a 10 min period in a pie shaped inhalation chamber (R+S Molds, San Carlos, Calif.) using 5 mL of dosing solution. […] Rats were dosed with 100 μg of test compound unless otherwise indicated. At predetermined time points, rats were anesthetized with an intraperitoneal (IP) injection of 120 mg/kg inactin (thiobutabarbital). A supplemental dose (40 mg/kg, IP) was administered if the animal responded to physical stimuli (e.g. toe pinch). The surgical site was shaved and a 1-2 cm midline incision of the ventral aspect of the neck was made. The jugular vein was isolated and cannulated with a saline-filled polyethylene catheter (PE-50) to allow IV infusion of MCh. Trachea was dissected free and cannulated with a 14G needle (#NE-014, Small Parts, Miami Lakes, Fla.). After placement of the tracheal cannula, each rat was ventilated using a respirator (Model 683, Harvard Apparatus, Inc., MA) set at a stroke volume of 1 mL/100 g body weight (but not exceeding 2.5 mL volume) and a rate of 90 strokes per minute. A T-connector was placed along the respirator expiratory tubing to allow for measurement of changes in ventilation pressure (VP) using a Biopac transducer that was connected to a Biopac […]) pre-amplifier. Body temperature was maintained at 37° C. using a heating pad. Changes in VP were recorded using the Acknowledge Data Collection Software (Santa Barbara, Calif.). Baseline values were collected for at least 2.5 min. Rats were then challenged with non-cumulative intravenous (IV) infusions of 40 and 80 μg/kg MCh. MCh was infused intravenously for 2.5 minutes from a syringe pump (sp210iw, World Precision Instruments, Inc., Sarasota, Fla.) at a rate of 2 mL/kg/min, with a 2 minute interval between the two doses of MCh. Changes in ventilation pressure (cm H2O) in treated animals are expressed as % inhibition of MCh response relative to control animals. Other bronchoconstrictors, such as histamine and acetylcholine, can be used in place of MCh in this assay. Additionally, guinea pigs can be used instead of rats. […] Inhibition greater than or equal to 30 percent at 24 h is indicative of a long duration of action.

| Compound | inhibition in vivo at 0.1 mg [%] |
| --- | --- |
| Cc1ccc(C(=O)Nc2cccc(CC(C)NC[C@H](O)c3ccc(O)c4[nH]c(=O)ccc34)c2)cc1N(C)C(=O)CCN1CCC(OC(=O)Nc2ccccc2-c2ccccc2)CC1 (stereo partly drawn) [Compound I-37, Biphenyl-2-ylcarbamic acid 1-(2-{[5-(3-{2-[(R)-2-hydroxy-2-(8-hydroxy-2-oxo-1,2-dihydroquinolin-5-yl)-ethylamino]propyl}phenylcarbamoyl)-2-methylphenyl]-methylcarbamoyl}ethyl)piperidin-4-yl ester ditrifluoroacetic acid salt] | < 30 |
| C[C@H](Cc1cccc(NC(=O)c2cccc(N(C)C(=O)CCN3CCC(OC(=O)Nc4ccccc4-c4ccccc4)CC3)c2)c1)NC[C@H](O)c1ccc(O)c2[nH]c(=O)ccc12 [Compound I-38, Biphenyl-2-ylcarbamic acid 1-(2-{[3-(3-{(R)-2-[(R)-2-hydroxy-2-(8-hydroxy-2-oxo-1,2-dihydroquinolin-5-yl)-ethylamino]propyl}phenylcarbamoyl)phenyl]methyl-carbamoyl}ethyl)piperidin-4-yl ester ditrifluoroacetic acid salt] | < 30 |
| C[C@@H](Cc1cccc(NC(=O)c2cccc(N(C)C(=O)CCN3CCC(OC(=O)Nc4ccccc4-c4ccccc4)CC3)c2)c1)NC[C@H](O)c1ccc(O)c2[nH]c(=O)ccc12 [Compound I-39, ditrifluoroacetic acid salt] | < 30 |
| CC(Cc1cccc(CNC(=O)c2cccc(N(C)C(=O)CCN3CCC(OC(=O)Nc4ccccc4-c4ccccc4)CC3)c2)c1)NC[C@H](O)c1ccc(O)c2[nH]c(=O)ccc12 (some centres unmarked) [Compound I-44, ditrifluoroacetic acid salt] | < 30 |
| Cc1ccc(C(=O)NCc2cccc(CC(C)NC[C@H](O)c3ccc(O)c4[nH]c(=O)ccc34)c2)cc1N(C)C(=O)CCN1CCC(OC(=O)Nc2ccccc2-c2ccccc2)CC1 (stereo partly drawn) [Compound I-45, Biphenyl-2-ylcarbamic acid 1-(2-{[5-(3-{2-[(R)-2-hydroxy-2-(8-hydroxy-2-oxo-1,2-dihydroquinolin-5-yl)-ethylamino]propyl}benzylcarbamoyl)-2-methylphenyl]-methylcarbamoyl}ethyl)piperidin-4-yl ester ditrifluoroacetic acid salt] | < 30 |
| CC(Cc1cccc(CC(=O)Nc2cccc(N(C)C(=O)CCN3CCC(OC(=O)Nc4ccccc4-c4ccccc4)CC3)c2)c1)NC[C@H](O)c1ccc(O)c2[nH]c(=O)ccc12 (some centres unmarked) [Compound I-52, ditrifluoroacetic acid salt] | < 30 |
| CC(Cc1ccc(CC(=O)Nc2cccc(N(C)C(=O)CCN3CCC(OC(=O)Nc4ccccc4-c4ccccc4)CC3)c2)cc1)NC[C@H](O)c1ccc(O)c2[nH]c(=O)ccc12 (stereo partly drawn) [Compound I-53, Biphenyl-2-ylcarbamic acid 1-[2-({3-[2-(4-{2-[(R)-2-hydroxy-2-(8-hydroxy-2-oxo-1,2-dihydroquinolin-5-yl)-ethylamino]propyl}phenyl)acetylamino]phenyl}methyl-carbamoyl)ethyl]piperidin-4-yl ester ditrifluoroacetic acid salt] | < 30 |
| C[C@@H](Cc1cccc(CCNC(=O)c2ccc(N(C)C(=O)CCN3CCC(OC(=O)Nc4ccccc4-c4ccccc4)CC3)cc2)c1)NC[C@H](O)c1ccc(O)c2[nH]c(=O)ccc12 [Compound I-56, Biphenyl-2-ylcarbamic acid 1-[2-({4-[2-(3-{(S)-2-[(R)-2-hydroxy-2-(8-hydroxy-2-oxo-1,2-dihydroquinolin-5-yl)-ethylamino]propyl}phenyl)ethylcarbamoyl]phenyl}-methylcarbamoyl)ethyl]piperidin-4-yl ester ditrifluoroacetic acid salt] | < 30 |
| CN(C(=O)CCN1CCC(OC(=O)Nc2ccccc2-c2ccccc2)CC1)c1ccc(CC(=O)NCc2ccc(CCNC[C@H](O)c3ccc(O)c4[nH]c(=O)ccc34)cc2)cc1 [Compound I-64, Biphenyl-2-ylcarbamic acid 1-[2-({4-[(4-{2-[(R)-2-hydroxy-2-(8-hydroxy-2-oxo-1,2-dihydroquinolin-5-yl)-ethylamino]ethyl}benzylcarbamoyl)methyl]phenyl}-methylcarbamoyl)ethyl]piperidin-4-yl ester ditrifluoroacetic acid salt] | < 30 |
| CC(Cc1ccc(CNC(=O)Cc2ccc(N(C)C(=O)CCN3CCC(OC(=O)Nc4ccccc4-c4ccccc4)CC3)cc2)cc1)NC[C@H](O)c1ccc(O)c2[nH]c(=O)ccc12 (stereo partly drawn) [Compound I-66, Biphenyl-2-ylcarbamic acid 1-[2-({4-[(4-{2-[(R)-2-hydroxy-2-(8-hydroxy-2-oxo-1,2-dihydroquinolin-5-yl)-ethylamino]propyl}benzylcarbamoyl)methyl]phenyl}-methylcarbamoyl)ethyl]piperidin-4-yl ester ditrifluoroacetic acid salt] | < 30 |
| C[C@@H](Cc1cccc(CC(=O)NCc2ccc(N(C)C(=O)CCN3CCC(OC(=O)Nc4ccccc4-c4ccccc4)CC3)cc2)c1)NC[C@H](O)c1ccc(O)c2[nH]c(=O)ccc12 [Compound I-79, ditrifluoroacetic acid salt] | < 30 |
| CC(Cc1ccc(CC(=O)NCc2ccc(N(C)C(=O)CCN3CCC(OC(=O)Nc4ccccc4-c4ccccc4)CC3)cc2)cc1)NC[C@H](O)c1ccc(O)c2[nH]c(=O)ccc12 (stereo partly drawn) [Compound I-80, Biphenyl-2-ylcarbamic acid 1-{2-[(4-{[2-(4-{2-[(R)-2-hydroxy-2-(8-hydroxy-2-oxo-1,2-dihydroquinolin-5-yl)-ethylamino]propyl}phenyl)acetylamino]methyl}-phenyl)methylcarbamoyl]ethyl}piperidin-4-yl ester ditrifluoroacetic acid salt] | < 30 |

same assay, conditions: inhaled or nasal; rat, 100 μg by inhalation, 24 h after administration; read-out: Broncho. at 24 h; Bronchoprotective effect present at 24 h

| Compound | inhibition in vivo at 0.1 mg [%] |
| --- | --- |
| Cc1ccc(C(=O)Nc2ccc(CC(C)NC[C@H](O)c3ccc(O)c4[nH]c(=O)ccc34)cc2)cc1N(C)C(=O)CCN1CCC(OC(=O)Nc2ccccc2-c2ccccc2)CC1 (stereo partly drawn) [Compound I-41, Biphenyl-2-ylcarbamic acid 1-(2-{[5-(4-{2-[(R)-2-hydroxy-2-(8-hydroxy-2-oxo-1,2-dihydroquinolin-5-yl)-ethylamino]propyl}phenylcarbamoyl)-2-methylphenyl]-methylcarbamoyl}ethyl)piperidin-4-yl ester] | < 30 |

same assay, conditions: rat, 100 μg by inhalation, 24 h after administration

| Compound | Broncho. at 24 h; Bronchoprotective effect present at 24 h |
| --- | --- |
| CC(Cc1cccc(CCNC(=O)Cc2ccc(N(C)C(=O)CCN3CCC(OC(=O)Nc4ccccc4-c4ccccc4)CC3)cc2)c1)NC[C@H](O)c1ccc(O)c2[nH]c(=O)ccc12 (some centres unmarked) [Compound I-87] | Yes (Bronchoprotective effect present at 24 h, e.g., ≧30% inhibition of the MCh response at 24 h in the rat Einthoven assay (100 μg)) |
